System: mouse spleen cells
Test: Suppression of mitogen (ConA) reaction
Type: cell-based, C57BL/6 mouse
Conditions: 48 hours, 3 cases, read-out: Suppression Rate of Mitogen Reaction; for inhibition at 1 µg/mL: 1 μg/ml; for inhibition at 10 µg/mL: 10 μg/ml; for inhibition at 50 µg/mL: 50 μg/ml
Method: If mouse spleen cells are cultured in vitro in the presence of concanavalin A (hereinafter referred to as "ConA" for short), the cells are divided and proliferated (mitogen reaction). In this system, the immunosuppressive agent of the present invention or cyclosporin A as a comparative example was added to the culture medium and the effects to the mitogen reaction were examined.
More particularly, C57BL/6 mouse was sacrificed and the spleen was removed. The spleen cells were suspended in RPMI 1640 culture medium containing 10% fetal calf serum (hereinafter referred to as "RPMI 1640" for short) so as to prepare a spleen cell suspension (5×10^6 cells/ml). In the wells of a flat-bottomed 96-well microplate, 100 μl of the suspension was placed and then 50 μl of RPMI 1640 containing ConA (4 μg/ml) as well as 50 μl of RPMI 1640 containing the test compound in the concentration shown in Table 2 were added. The cells were cultured for 48 hours (37° C. 5%CO2) As a control, 50 μl of RPMI 1640 was added. Eight hours before the termination of the culture, 2 μ Ci of [^3 H] thymidine was […], added. After termination of the culture, the cells were collected on a filter paper by using a cell harvester. After drying the filter paper, the filter paper was placed in a vial containing toluene-based scintillator and the radioactivity was measured by a liquid scintillation counter.
The suppression rate of mitogen reaction was calculated according to the following equation: [formula]

SMILES: CN1CC[C@]23c4c5ccc(O)c4O[C@H]2c2[nH]c4ccccc4c2C[C@H]3[C@H]1C5 [Me H H NH H H]
- inhibition at 1 µg/mL: 0%
- inhibition at 10 µg/mL: 12%
- inhibition at 50 µg/mL: 52%

SMILES: C=CCN1CC[C@]23c4c5ccc(OC(C)=O)c4O[C@H]2c2[nH]c4ccccc4c2C[C@@]3(OC(C)=O)[C@H]1C5 [allyl OAc Ac NH H H]
- inhibition at 1 µg/mL: 2%
- inhibition at 10 µg/mL: 40%
- inhibition at 50 µg/mL: 100%

SMILES: C=CCN1CC[C@]23c4c5ccc(O)c4O[C@H]2c2[nH]c4ccc(C)cc4c2C[C@@]3(O)[C@H]1C5 [allyl OH H NH 5'-Me H, 5'-methylnaloxindole]
- inhibition at 1 µg/mL: 22%
- inhibition at 10 µg/mL: 45%
- inhibition at 50 µg/mL: 100%

SMILES: C=CCN1CC[C@]23c4c5ccc(O)c4O[C@H]2c2[nH]c4c(Cl)cccc4c2C[C@@]3(O)[C@H]1C5 [allyl OH H NH 7'-Cl H]
- inhibition at 1 µg/mL: 17%
- inhibition at 10 µg/mL: 50%
- inhibition at 50 µg/mL: 100%

SMILES: C=CCN1CC[C@]23c4c5ccc(O)c4O[C@H]2c2c(c4ccccc4n2C)C[C@@]3(O)[C@H]1C5 [allyl OH H NMe H H]
- inhibition at 1 µg/mL: 13%
- inhibition at 10 µg/mL: 50%
- inhibition at 50 µg/mL: 100%

SMILES: C=CCN1CC[C@]23c4c5ccc(O)c4O[C@H]2c2oc4ccccc4c2C[C@@]3(O)[C@H]1C5 [allyl OH H O H H]
- inhibition at 1 µg/mL: 6%
- inhibition at 10 µg/mL: 45%
- inhibition at 50 µg/mL: 100%

SMILES: C=CCN1CC[C@]23c4c5ccc(OC)c4O[C@H]2c2[nH]c4ccccc4c2C[C@@]3(O)[C@H]1C5 [allyl OH Me NH H H]
- inhibition at 1 µg/mL: 17%
- inhibition at 10 µg/mL: 32%
- inhibition at 50 µg/mL: 100%

SMILES: CC(=O)Oc1ccc2c3c1O[C@H]1c4[nH]c5ccccc5c4C[C@@]4(OC(C)=O)[C@@H](C2)N(CC2CC2)CC[C@]314 [cyclopropylmethyl OAc Ac NH H H]
- inhibition at 1 µg/mL: 4%
- inhibition at 10 µg/mL: 55%
- inhibition at 50 µg/mL: 100%

SMILES: CC(=O)O[C@@]12Cc3c([nH]c4ccccc34)[C@@H]3Oc4c(O)ccc5c4[C@@]31CCN(CC1CC1)[C@@H]2C5 [cyclopropylmethyl OAc H NH H H]
- inhibition at 1 µg/mL: 2%
- inhibition at 10 µg/mL: 70%
- inhibition at 50 µg/mL: 100%

SMILES: Oc1ccc2c3c1O[C@H]1c4nc5ccccc5cc4C[C@@]4(O)[C@@H](C2)N(CC2CC2)CC[C@]314 [cyclopropylmethyl OH H CH H H]
- inhibition at 1 µg/mL: 15%
- inhibition at 10 µg/mL: 43%
- inhibition at 50 µg/mL: 75%

SMILES: Oc1ccc2c3c1O[C@H]1c4nc5ccccc5nc4C[C@@]4(O)[C@@H](C2)N(CC2CC2)CC[C@]314 [cyclopropylmethyl OH H N H H]
- inhibition at 1 µg/mL: 10%
- inhibition at 10 µg/mL: 34%
- inhibition at 50 µg/mL: 55%

SMILES: Oc1ccc2c3c1O[C@H]1c4[nH]c5ccc6ccccc6c5c4C[C@@]4(O)[C@@H](C2)N(CC2CC2)CC[C@]314 [cyclopropylmethyl OH H NH 4',5'-benzo]
- inhibition at 1 µg/mL: 2%
- inhibition at 10 µg/mL: 30%
- inhibition at 50 µg/mL: 88%

SMILES: Oc1ccc2c3c1O[C@H]1c4[nH]c5ccc(Br)cc5c4C[C@@]4(O)[C@@H](C2)N(CC2CC2)CC[C@]314 [cyclopropylmethyl OH H NH 5'-Br H]
- inhibition at 1 µg/mL: 7%
- inhibition at 10 µg/mL: 40%
- inhibition at 50 µg/mL: 100%

SMILES: Oc1ccc2c3c1O[C@H]1c4[nH]c5ccc(Cl)cc5c4C[C@@]4(O)[C@@H](C2)N(CC2CC2)CC[C@]314 [cyclopropylmethyl OH H NH 5'-Cl H]
- inhibition at 1 µg/mL: 12%
- inhibition at 10 µg/mL: 37%
- inhibition at 50 µg/mL: 100%

SMILES: Cc1ccc2[nH]c3c(c2c1)C[C@@]1(O)[C@H]2Cc4ccc(O)c5c4[C@@]1(CCN2CC1CC1)[C@H]3O5 [cyclopropylmethyl OH H NH 5'-Me H]
- inhibition at 1 µg/mL: 8%
- inhibition at 10 µg/mL: 34%
- inhibition at 50 µg/mL: 100%

SMILES: Cc1ccc2c3c([nH]c2c1)[C@@H]1Oc2c(O)ccc4c2[C@@]12CCN(CC1CC1)[C@H](C4)[C@]2(O)C3 [cyclopropylmethyl OH H NH 6'-Me H]
- inhibition at 1 µg/mL: 0%
- inhibition at 10 µg/mL: 28%
- inhibition at 50 µg/mL: 100%

SMILES: Oc1ccc2c3c1O[C@H]1c4[nH]c5c(Cl)cccc5c4C[C@@]4(O)[C@@H](C2)N(CC2CC2)CC[C@]314 [cyclopropylmethyl OH H NH 7'-Cl H]
- inhibition at 1 µg/mL: 15%
- inhibition at 10 µg/mL: 75%
- inhibition at 50 µg/mL: 100%

SMILES: Oc1ccc2c3c1O[C@H]1c4[nH]c5c(F)cccc5c4C[C@@]4(O)[C@@H](C2)N(CC2CC2)CC[C@]314 [cyclopropylmethyl OH H NH 7'-F H]
- inhibition at 1 µg/mL: 15%
- inhibition at 10 µg/mL: 61%
- inhibition at 50 µg/mL: 100%

SMILES: O=[N+]([O-])c1cccc2c3c([nH]c12)[C@@H]1Oc2c(O)ccc4c2[C@@]12CCN(CC1CC1)[C@H](C4)[C@]2(O)C3 [cyclopropylmethyl OH H NH 7'-NO2 H]
- inhibition at 1 µg/mL: 5%
- inhibition at 10 µg/mL: 55%
- inhibition at 50 µg/mL: 100%

SMILES: Cn1c2c(c3ccccc31)C[C@@]1(O)[C@H]3Cc4ccc(O)c5c4[C@@]1(CCN3CC1CC1)[C@H]2O5 [cyclopropylmethyl OH H NMe H H]
- inhibition at 1 µg/mL: 15%
- inhibition at 10 µg/mL: 69%
- inhibition at 50 µg/mL: 100%

SMILES: COc1ccc2c3c1O[C@H]1c4[nH]c5ccccc5c4C[C@@]4(O)[C@@H](C2)N(CC2CC2)CC[C@]314 [cyclopropylmethyl OH Me NH H H]
- inhibition at 1 µg/mL: 9%
- inhibition at 10 µg/mL: 65%
- inhibition at 50 µg/mL: 100%
